Test results taken from patent US12053473B2, “Benzylamino substituted quinazolines and derivatives as SOS1 inhibitors” (priority 2016, dated 2024).
Where two headings read alike, the source gives them in different places.

Assays:
[1] = molecular target: SOS1 and KRAS G12D (protein-protein interaction) (Homo sapiens, UniProt Q07889); experiment: KRAS::SOS1 AlphaScreen binding assay; settings: read-out: IC50 (SOS1)
Method in brief: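 Compounds were tested in duplicate at 11 concentrations (1:5 serial from 100 μM, 1% DMSO). They were preincubated 30 min with final 10 nM KRAS G12D, 10 μM GDP and 5 nM GST-SOS1, then glutathione acceptor and streptavidin donor beads (10 μg/mL each) were added for 60 min at RT in the dark. AlphaScreen signal gave IC50 via 4-parameter logistic fit.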

[2] = test system: cleaved PARP in NCI-H358 (KRAS G12C) NSCLC cells; assay type: cell-based, human; settings: NCI-H358, 3D, 10% serum; 1 μM I-13, 125 nM afatinib, alone or combined; 24 h, 48 h, 72 h
[3] = test system: KRAS G12C mutant MIA PaCa-2 pancreatic xenograft; assay type: in vivo, mouse; settings: monotherapy
Protocol: In Vivo Efficacy Experiments
Cultures are incubated at 37° C. and 5% CO2 in a humidified atmosphere, with medium change or subcultivation performed 2-3 times a week. For injection tumor cells are mixed with PBS including 5% FCS and Matrigel in a ratio of 1:1. 1×10EXP7 cells in a volume of 100 μL are injected subcutaneous in each mouse to establish tumors. […] The vehicle control, trametinib, 1-13 or the respective combination is administered intragastrically using a gavage needle at an application volume of 10 mL/kg in a volume of 10 mL/kg per mouse daily twice with a 6 h difference. Trametinib is dissolved in 0.5% DMSO and 0.5% Natrosol. Paclitaxel is formulated in 0.9% NaCl and is applied intravenously once a week at 10 mg/kg in a volume of 10 mL/kg. […]
Standardized irradiated diet (PROVIMI KLIBA) and autoclaved tap water are provided ad libitum. Microchips implanted subcutaneously under isoflurane anesthesia are used to identify each mouse. Cage cards showing the study number, the animal number, the compound and dose level, the administration route as well as the schedule remain with the animals throughout the study. The tumor diameter is measured two-three times a week with a caliper. The volume of each tumor [in mm^3] is calculated according to the formula “tumor volume=length*diameter2*π/6”. To monitor side effects of treatment, mice are inspected daily for abnormalities and body weight is determined daily. Animals are sacrificed at the end of the study. Animals with necrotic tumors or tumor sizes exceeding 1500 mm^3 are sacrificed early during the study for ethical reasons.
All compounds were applied twice daily per os (p.o.).

[4] = test system: phosphorylation of MEK1/2 (Ser217/221) in MIA PaCa-2 cells (KRAS G12C); experiment: MEK phosphorylation (Western blot) in MIA PaCa-2 cells; assay type: cell-based, human; settings: MIA PaCa-2, 2D; 25 nM trametinib alone or with 1 μM I-13; 2 h, 4 h, 8 h
Source text: ERK and MEK Phosphorylation to Investigate the Combinatorial Effect of SOS1 Inhibitors with MEK Inhibitors
ERK and MEK phosphorylation assays are also used to investigate combinatorial effects of SOS1 inhibitors with MEK inhibitors, e.g. in MIA PaCa-2 cells.
• 96-well Ultra low binding plates from Corning (CLS2474-24EA); • DMEM (Lonza BE12-604F); • Fetal Bovine Serum (FBS) from HyClone (SH30071.03); • Cell lysate buffer (CLB):10× (Cell Signaling, Cat #9803)
For lysis of the cells a 1.2 fold concentrated CLB is used including the following supplements: 120 μL Cell Lysis Buffer 10×(Cell Signaling, Cat #9803)+870 μL H2O is supplemented with 10 μL HALT Protease & Phosphatase Inhibitor Cocktail (Thermo Scientific, Prod #1861281)+1 μL PMSF Stock sol. (Sigma, Cat #P7626) […]
ImageQuant LAS 4000 is used to induce a Chemilumescence signal that is detected with an Amersham Hyperfilm MP (GE Healthcare, Cat #28906847). […] Band quantification is performed by using the software “Image Quant TL” from GE Health.
MIA PaCa-2 cells are seeded at 1.16×E6 cells per 6 well plate in 2 mL DMEM medium supplemented with 2% FCS in 6 well plates. […] The protein concentration of the cell lysate is quantified by Bradford protein assay according to the manufacturer's instructions. […]
. Cell lysate was generated at the respective timepoints and the effect on ERK or MEK phosphorylation was analysed using Western-blotting. […]

[5] = test system: phosphorylation of ERK1/2 (Thr202/Tyr204) in MIA PaCa-2 cells (KRAS G12C); settings: MIA PaCa-2, 2D; 50 nM trametinib
Protocol: Secondary Antibody (incubated 1 h at room temperature): Use a blocking buffer with a 1:1000 dilution of the anti-Rabbit IgG-HRP (Dako, Cat #P0448)
ECL Western Blotting Detection Reagents (GE Healthcare, Cat #RPN2106)
The film is developed with the device Protec Optimax. Band quantification is performed by using the software “Image Quant TL” from GE Health.
Cells are incubated over night at 37° C. with 5% CO2. The next day inhibitors are added with a HP D300 digital Dispenser. Following addition of the respective inhibitor the 6-well plate is incubated for 24 h, 48 h or 72 h, respectively. At the respective timepoint cells are lysed. […] Following this the lysate is centrifuged (16000 rpm, 4° C. for 15 minutes) and the supernatant is stored at −80° C. and used for subsequent steps. The protein concentration of the cell lysate is quantified by Bradford protein assay according to the manufacturer's instructions. […]

| SMILES | IC50 [1] | also measured |
| --- | --- | --- |
| COc1cc2nc(C)nc(N[C@H](C)c3cc(N)cc(C(F)(F)F)c3)c2cc1[C@H]1CC[C@@H](C(=O)N2CCOCC2)CC1 [I-360] | 25 nM |  |
| Cc1nc(N[C@H](C)c2cc(N)cc(C(F)(F)F)c2)c2cc([C@H]3CC[C@H](C(=O)N4CCN(C)CC4)CC3)cc(C)c2n1 [I-361] | 5 nM |  |
| Cc1nc(N[C@H](C)c2cc(N)cc(C(F)(F)F)c2)c2cc([C@H]3CC[C@@H](C(=O)N4CCN(C)CC4)CC3)cc(C)c2n1 [I-362] | 8 nM |  |
| Cc1nc(N[C@H](C)c2cc(N)cc(C(F)(F)F)c2)c2cc([C@H]3CC[C@H](C(=O)N(C)C)CC3)cc(C)c2n1 [I-363] | 4 nM |  |
| Cc1nc(N[C@H](C)c2cc(N)cc(C(F)(F)F)c2)c2cc(C3=CCS(=O)(=O)CC3)cc(C)c2n1 [I-364] | 11 nM |  |
| CNC(=O)CC(C)c1ccc2nc(C)nc(N[C@H](C)c3cccc(C(F)(F)F)c3)c2c1 (stereo partly shown) [I-375] | 36 nM |  |
| CONC(=O)CC(C)c1ccc2nc(C)nc(N[C@H](C)c3cccc(C(F)(F)F)c3)c2c1 (stereo partly shown) [I-376] | 34 nM |  |
| CNC(=O)CC(C)c1cc2c(N[C@H](C)c3cccc(C(F)(F)F)c3)nc(C)nc2cc1C (stereo partly shown) [I-377] | 10 nM |  |
| CONC(=O)CC(C)c1cc2c(N[C@H](C)c3cccc(C(F)(F)F)c3)nc(C)nc2cc1C (stereo partly shown) [I-378] | 8 nM |  |
| Cc1nc(N[C@H](C)c2cccc(C(F)(F)F)c2)c2cc(C(C)CC(=O)NC3CC3)c(C)cc2n1 (stereo partly shown) [I-379] | 12 nM |  |
| Cc1nc(N[C@H](C)c2cccc(C(F)(F)F)c2)c2cc(C(C)CC(=O)NCC(F)(F)F)c(C)cc2n1 (stereo partly shown) [I-380] | 42 nM |  |
| CNC(=O)CC(C)c1cc2c(N[C@H](C)c3cccc(C(F)(F)F)c3)nc(C)nc2cc1OC (stereo partly shown) [I-381] | 17 nM |  |
| CONC(=O)CC(C)c1cc2c(N[C@H](C)c3cccc(C(F)(F)F)c3)nc(C)nc2cc1OC (stereo partly shown) [I-382] | 16 nM |  |
| COc1cc2nc(C)nc(N[C@H](C)c3cccc(C(F)(F)F)c3)c2cc1C(C)CC(=O)NC1CC1 (stereo partly shown) [I-383] | 21 nM |  |
| CN(C)C/C=C/C(=O)Nc1cc2c(Nc3ccc(F)c(Cl)c3)ncnc2cc1O[C@H]1CCOC1 [afatinib] |  | apoptosis induction (levels of cleaved PARP) [2]: needed 48 h to show apoptosis induction |
| Nc1ccn([C@@H]2O[C@H](CO)[C@@H](O)C2(F)F)c(=O)n1 [gemcitabine] |  | TGI ([3]; gemcitabine 50 mg/kg q4d i.p.): 4% |
| CC(=O)O[C@H]1C(=O)[C@@]2(C)[C@H]([C@H](OC(=O)c3ccccc3)[C@]3(O)C[C@H](OC(=O)[C@H](O)[C@@H](NC(=O)c4ccccc4)c4ccccc4)C(C)=C1C3(C)C)[C@]1(OC(C)=O)CO[C@@H]1C[C@@H]2O [paclitaxel] |  | TGI ([3]; paclitaxel 10 mg/kg q7d i.v., day 22): 62% |
| CC(=O)Nc1cccc(-n2c(=O)n(C3CC3)c(=O)c3c(Nc4ccc(I)cc4F)n(C)c(=O)c(C)c32)c1 [trametinib] |  | levels of phosphorylated MEK1/2 (Ser 217/221) [4]: increased levels of MEK1/2 (Ser 217/221); reduction of ERK1/2 (Thr 202/Tyr 204) phosphorylation levels compared to untreated control cells [5]: 65-75%; TGI ([3]; trametinib 0.05 mg/kg twice daily p.o.): 50%; tumor regressions ([3]; trametinib 0.125 mg/kg or 0.05 mg/kg twice daily p.o.): no regressions in any tumors; TGI ([3]; trametinib 0.125 mg/kg twice daily p.o.): 73% |
